Reference: PMC3660367, “MARCKS Protein Is Phosphorylated and Regulates Calcium Mobilization during Human Acrosomal Exocytosis” (PLoS ONE, 2013)

Key:
[1] = system: phosphorylated MARCKS in human sperm; test: Phosphorylated MARCKS level in stimulated sperm by Western blot (anti-phospho-MARCKS); type: cell-based; conditions: non-permeabilized capacitated sperm; 100 µM 2-APB 15 min, then 20 min 10 µM A23187, 200 nM PMA or 15 µM progesterone; normalized against β-tubulin; three experiments
Description: To examine the presence of MARCKS and phosphorylated MARCKS, the fraction of motile sperm capacitated for 2–3 h in BSA supplemented-HTF medium was used. After removing the HTF by washing cells twice with cold PBS, sperm pellets were resuspended in sample buffer (2% SDS, 10% glycerol, and 62.5 mM Tris-HCl pH 6.8) without disulfide reducing agents. Proteins were extracted by heating three times to 95°C for 4 min each. Extracts were centrifuged (12,000×g) for 10 min, and the supernatants were adjusted to 5% β-mercaptoethanol. Protein were resolved on 10% polyacrylamide gels according to [23], and transferred to PVDF membranes (Millipore). Non-specific reactivity was blocked by incubation for 1 h at room temperature (RT) with 5% skim milk dissolved in tris-buffered saline with 0.1% Tween-20 (T-TBS: 50 mM Tris-HCl pH 7.4, 150 mM NaCl, 0.1% Tween-20). Blots were incubated with primary anti-MARCKS antibody from Abcam (0.26 µg/ml), anti-MARCKS N-19 from Santa Cruz (0.13 µg/ml), or anti-phospho-MARCKS (0.06 µg/ml), in blocking solution overnight at 4°C. Biotinylated, goat anti-mouse-IgG (0.076 µg/ml), biotinylated, rabbit anti-goat-IgG (0.4 µg/ml) or biotinylated, goat anti-rabbit-IgG (0.076 µg/ml) were used as secondary antibodies during 60 min incubations at RT. Blots were then incubated with peroxidase-conjugated streptavidin (0.17 µg/ml) during 60 min incubations at RT. Excess first and second antibodies, and peroxidase-conjugated streptavidin were removed by washing five times for 10 min each in T-TBS. For loading control blots were reprobed with anti-β-tubulin. […]
Figure 5 Assessing MARCKS function on acrosomal exocytosis in non-permeabilized sperm. […] The increase in fluorescence is expressed as (F/F0)-1 ((maximum fluorescence intensity/initial fluorescence)-1) versus time in seconds. […] (D) Quantification of three independent experiments. […] Phosphorylated MARCKS was detected by Western blot assay using an anti-phospho-MARCKS antibody. […]

[2] = system: acrosomal exocytosis in permeabilized human sperm; test: Acrosomal exocytosis assay in SLO-permeabilized human sperm (FITC-PSA lectin staining); type: cell-based; conditions: 1 µM MARCKS ED 15 min, then 50 µM PIP2 or 5 µM adenophostin, then 10 µM free Ca2+ or 200 nM PMA
Description: Acrosomal exocytosis assays were performed as previously described. Briefly, human semen obtained from normal healthy donors was allowed to liquefy for 30-60 min at 37°C. We used a swim-up protocol to isolate highly motile sperm under capacitating conditions in Human Tubal Fluid media (HTF, as formulated by Irvine Scientific, Santa Ana, CA) supplemented with 0.5% bovine serum albumin (BSA) for 1 h at 37°C in an atmosphere of 5% CO2/95% air. Sperm concentrations were adjusted to 5–10×10^6 cells/ml and incubated for at least 2 h under capacitating conditions. We have shown previously that human sperm incubated under these conditions are responsive to progesterone. […] Acrosomal status was evaluated by staining with FITC-coupled Pisum sativum agglutinin (FITC-PSA) according to [21]. At least 200 cells were scored using a Nikon Optiphot II microscope equipped with epifluorescence optics. […] For each experiment, acrosomal exocytosis indexes were calculated by subtracting the number of reacted spermatozoa in the negative control (range 10%–30%) from all values, and expressing the resulting values as a percentage of the acrosome exocytosis observed in the positive control (range 25%–40%). […] Data were evaluated using one-way ANOVA and post hoc tests (Dunnett's test or confident intervals). […]

Molecule	increase of phosphorylated MARCKS [1]	rescue of MARCKS ED inhibition of acrosomal exocytosis [2]
CNc1ccc2oc(C[C@H]3O[C@@]4(CC[C@H]3C)O[C@H]([C@H](C)C(=O)c3ccc[nH]3)[C@H](C)C[C@H]4C)nc2c1C(=O)O [A23187]	50%	
CCCCCCCCCCCCCC(=O)O[C@@H]1[C@@H](C)[C@@]2(O)[C@@H](C=C(CO)C[C@]3(O)C(=O)C(C)=C[C@@H]23)[C@@H]2C(C)(C)[C@]12OC(C)=O [PMA, phorbol 12-myristate 13-acetate]	60%	
Nc1ncnc2c1ncn2[C@@H]1O[C@H](CO)[C@@H](O[C@H]2O[C@H](CO)[C@@H](OP(=O)(O)O)[C@H](OP(=O)(O)O)[C@H]2O)[C@H]1OP(=O)(O)O [adenophostin, Adenophostin A]		rescued exocytosis impaired by MARCKS ED
CC(=O)[C@H]1CC[C@H]2[C@@H]3CCC4=CC(=O)CC[C@]4(C)[C@H]3CC[C@]12C [progesterone]	40%	
Phosphatidylinositol 4, 5-bisphosphate [PIP2]		able to recover the MARCKS ED inhibition
